Where “and” joins values, the source holds several entries; their conditions need not be identical. Equal values may be shown once. One block for each compound: values may come before it.
Target: NAMPT enzyme (Homo sapiens (Human), UniProt P43490)
Assay: Enzyme Assay and NMN Detection (NAMPT reaction, fluorescence detection of NMN)
Type: biochemical
Settings: NAMPT activation, NMN formation
Description: NAMPT reaction was performed in 50 mM HEPES, pH 7.5, containing 5 mM MgCl2, 0.1% Prionex, 0.005% Tween 20, and 1 mM TCEP at room temperature in Greiner 384-well black polypropylene plates. The concentration of substrates and enzymes in the final assay were as follows: ATP (120 uM), nicotinamide (5 uM), phosphoribosylpyrophosphate (6.25 uM), NAMPT enzyme (16 nM), pyrophosphatase (0.04 U/ml) in the final reaction volume 6 uL. Following 2 h incubation the reaction was stopped by addition 2.5 ul 20% acetophenone in dimethyl sulfoxide (DMSO) and 2.5 ul 2 MKOH. Plates were centrifuges and added with 10.5 ul 88% formic acid. The fluorescence (ex380/em460) was measured following another short incubation and 30 min incubation. The increased concentration of NMN was determined from a calibration curve obtained at the time of experiment.

NAMPT enzyme, sequence (P43490 whole entry, species assumed): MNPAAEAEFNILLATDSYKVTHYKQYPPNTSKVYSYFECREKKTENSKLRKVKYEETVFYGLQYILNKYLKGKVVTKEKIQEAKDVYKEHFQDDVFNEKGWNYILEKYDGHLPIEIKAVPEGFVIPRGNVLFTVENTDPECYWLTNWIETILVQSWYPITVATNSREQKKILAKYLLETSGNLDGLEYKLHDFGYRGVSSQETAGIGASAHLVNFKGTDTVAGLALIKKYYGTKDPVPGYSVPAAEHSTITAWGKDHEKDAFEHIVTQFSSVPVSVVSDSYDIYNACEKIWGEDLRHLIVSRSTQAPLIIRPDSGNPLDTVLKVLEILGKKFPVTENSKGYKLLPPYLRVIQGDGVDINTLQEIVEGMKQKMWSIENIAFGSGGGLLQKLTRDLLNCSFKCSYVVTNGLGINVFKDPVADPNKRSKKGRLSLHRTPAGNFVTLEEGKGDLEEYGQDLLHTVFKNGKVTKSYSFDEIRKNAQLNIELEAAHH

EC50 (Table B-4): 100 to 2000 nM
SMILES: Cc1cccc(-c2csc(Nc3ccc(NC(=O)NCc4cn[nH]c4)cc3)n2)c1 [1-(1H-Pyrazol-4-ylmethyl)-3-[4-(4-m-tolyl-thiazol-2-ylamino)-phenyl]-urea]

EC50 (Table B-4): 100 to 2000 nM
SMILES: Cc1ccccc1-c1csc(Nc2ccc(NC(=O)NCc3cn[nH]c3)cc2)n1 [1-(1H-Pyrazol-4-ylmethyl)-3-[4-(4-o-tolyl-thiazol-2-ylamino)-phenyl]-urea]

EC50 (Table B-4): 2000 to 5000 nM
SMILES: Cc1ccc(-c2csc(Nc3ccc(NC(=O)NCc4cn[nH]c4)cc3)n2)cc1 [1-(1H-Pyrazol-4-ylmethyl)-3-[4-(4-p-tolyl-thiazol-2-ylamino)-phenyl]-urea]

EC50 (Table B-4): 100 to 2000 nM
SMILES: O=C(NCc1cn[nH]c1)Nc1ccc(S(=O)(=O)c2ccc(OC(F)(F)F)cc2)cc1 [1-(1H-Pyrazol-4-ylmethyl)-3-[4-(4-trifluoromethoxy-benzenesulfonyl)-phenyl]-urea]

EC50 (Table B-4): 2000 to 5000 nM
SMILES: O=C(NCc1cn[nH]c1)Nc1ccc(S(=O)(=O)c2ncccn2)cc1 [1-(1H-Pyrazol-4-ylmethyl)-3-[4-(pyrimidine-2-sulfonyl)-phenyl]-urea]

EC50 (Table B-4): < 100 nM
SMILES: Cc1ccccc1S(=O)(=O)c1ccc(NC(=O)NCc2cn[nH]c2)cc1 [1-(1H-Pyrazol-4-ylmethyl)-3-[4-(toluene-2-sulfonyl)-phenyl]-urea]

EC50 (Table B-4): 100 to 2000 nM
SMILES: Cc1ccc(S(=O)(=O)c2ccc(NC(=O)NCc3cn[nH]c3)cc2)cc1 [1-(1H-Pyrazol-4-ylmethyl)-3-[4-(toluene-4-sulfonyl)-phenyl]-urea]

EC50 (Table B-5): < 100 nM
SMILES: O=C(NCc1cnco1)Nc1ccc(NS(=O)(=O)Cc2ccccc2Cl)cc1 [1-(2-Chlorophenyl)-N-(4-(3-(oxazol-5-ylmethyl)ureido)phenyl)methanesulfonamide]

EC50 (Table B-2): < 100 nM
SMILES: O=C(NCc1ccncc1)Nc1ccc(NS(=O)(=O)Cc2ccccc2Cl)cc1 [1-(2-chlorophenyl)-N-(4-(3-(pyridin-4-ylmethyl)ureido)phenyl)methanesulfonamide]

EC50 (Table B-5): < 100 nM
SMILES: O=C(NCc1cnco1)Nc1ccc(NS(=O)(=O)Cc2cccc(Cl)c2)cc1 [1-(3-Chlorophenyl)-N-(4-(3-(oxazol-5-ylmethyl)ureido)phenyl)methanesulfonamide]

EC50 (Table B-6): 100 to 2000 nM
SMILES: N#Cc1cc(NC(=O)NCc2ccncc2)ccc1S(=O)(=O)c1cc(F)cc(F)c1 [1-(3-Cyano-4-((3,5-difluorophenyl)sulfonyl)phenyl)-3-(pyridin-4-ylmethyl)urea]

EC50 (Table B-2): < 100 nM
SMILES: O=C(NCc1ccncc1)Nc1ccc(NS(=O)(=O)Cc2cccc(Cl)c2)cc1 [1-(3-chlorophenyl)-N-(4-(3-(pyridin-4-ylmethyl)ureido)phenyl)methanesulfonamide]

EC50 (Table B-5): 5000 to 20000 nM
SMILES: Cc1ccc2c(c1)c(-c1ccc(NC(=O)NCc3cnco3)cc1)nn2C [1-(4-(1,5-Dimethyl-1H-indazol-3-yl)phenyl)-3-(oxazol-5-ylmethyl)urea]

EC50 (Table B-6): 100 to 2000 nM
SMILES: Cn1nc(-c2ccc(NC(=O)NCc3ccncc3)cc2)c2ccncc21 [1-(4-(1-Methyl-1H-pyrazolo[3,4-c]pyridin-3-yl)phenyl)-3-(pyridin-4-ylmethyl)urea]

EC50 (Table B-5): 5000 to 20000 nM
SMILES: O=C(NCc1cnco1)Nc1ccc(-c2ncc(Cc3ccccc3)s2)cc1 [1-(4-(5-Benzylthiazol-2-yl)phenyl)-3-(oxazol-5-ylmethyl)urea]

EC50 (Table B-6): 5000 to 20000 nM
SMILES: O=C(NCc1ccncc1)Nc1ccc(-c2ncc(Cc3ccccc3)s2)cc1 [1-(4-(5-Benzylthiazol-2-yl)phenyl)-3-(pyridin-4-ylmethyl)urea]

EC50 (Table B-5): 100 to 2000 nM
SMILES: Cn1nc(-c2ccc(NC(=O)NCc3cnco3)cc2)c2cc(Cl)ccc21 [1-(4-(5-Chloro-1-methyl-1H-indazol-3-yl)phenyl)-3-(oxazol-5-ylmethyl)urea]

The next lines start with the compound.

SMILES: O=C(NCc1cn[nH]c1)Nc1ccc(S(=O)(=O)c2ccccc2-c2cccnc2)cc1 [1-(1H-Pyrazol-4-ylmethyl)-3-[4-(2-pyridin-3-yl-benzenesulfonyl)-phenyl]-urea]
EC50 (Table B-4): 100 to 2000 nM

SMILES: O=C(NCc1cn[nH]c1)Nc1ccc(S(=O)(=O)c2ccccc2-c2ccncc2)cc1 [1-(1H-Pyrazol-4-ylmethyl)-3-[4-(2-pyridin-4-yl-benzenesulfonyl)-phenyl]-urea]
EC50 (Table B-4): 100 to 2000 nM

SMILES: O=C(NCc1cn[nH]c1)Nc1ccc(S(=O)(=O)c2ccccc2OC(F)(F)F)cc1 [1-(1H-Pyrazol-4-ylmethyl)-3-[4-(2-trifluoromethoxy-benzenesulfonyl)-phenyl]-urea]
EC50 (Table B-4): < 100 nM

SMILES: O=C(NCc1cn[nH]c1)Nc1ccc(S(=O)(=O)c2ccccc2C(F)(F)F)cc1 [1-(1H-Pyrazol-4-ylmethyl)-3-[4-(2-trifluoromethyl-benzenesulfonyl)-phenyl]-urea]
EC50 (Table B-4): 100 to 2000 nM

SMILES: O=C(NCc1cn[nH]c1)Nc1ccc(S(=O)(=O)c2cccc(OC(F)(F)F)c2)cc1 [1-(1H-Pyrazol-4-ylmethyl)-3-[4-(3-trifluoromethoxy-benzenesulfonyl)-phenyl]-urea]
EC50 (Table B-4): < 100 nM

SMILES: O=C(NCc1cn[nH]c1)Nc1ccc(S(=O)(=O)c2cccnc2)cc1 [1-(1H-Pyrazol-4-ylmethyl)-3-[4-(pyridine-3-sulfonyl)-phenyl]-urea]
EC50 (Table B-4): 100 to 2000 nM

SMILES: O=C(NCc1cn[nH]c1)Nc1ccc(S(=O)(=O)c2nccs2)cc1 [1-(1H-Pyrazol-4-ylmethyl)-3-[4-(thiazole-2-sulfonyl)-phenyl]-urea]
EC50 (Table B-4): 2000 to 5000 nM and 100 to 2000 nM

SMILES: Cc1cccc(S(=O)(=O)c2ccc(NC(=O)NCc3cn[nH]c3)cc2)c1 [1-(1H-Pyrazol-4-ylmethyl)-3-[4-(toluene-3-sulfonyl)-phenyl]-urea]
EC50 (Table B-4): 100 to 2000 nM

SMILES: O=C(NCc1cn[nH]c1)Nc1ccc(S(=O)(=O)C2CCN(C3CCOCC3)CC2)cc1 [1-(1H-Pyrazol-4-ylmethyl)-3-{4-[1-(tetrahydro-pyran-4-yl)-piperidine-4-sulfonyl]-phenyl}-urea]
EC50 (Table B-4): 100 to 2000 nM
EC50 (Table B-6): 100 to 2000 nM

SMILES: O=C(NCc1cnco1)Nc1ccc(NS(=O)(=O)Cc2ccc(Cl)c(Cl)c2)cc1 [1-(3,4-Dichlorophenyl)-N-(4-(3-(oxazol-5-ylmethyl)ureido)phenyl)methanesulfonamide]
EC50 (Table B-5): < 100 nM

SMILES: O=C(NCc1ccncc1)Nc1cccc(S(=O)(=O)N2CCOCC2)c1 [1-(3-(morpholinosulfonyl)phenyl)-3-(pyridin-4-ylmethyl)urea]
EC50 (Table B-2): > 20000 nM

SMILES: Cc1cccc2c1c(-c1ccc(NC(=O)NCc3ccncc3)cc1)nn2C [1-(4-(1,4-Dimethyl-1H-indazol-3-yl)phenyl)-3-(pyridin-4-ylmethyl)urea]
EC50 (Table B-6): 100 to 2000 nM

SMILES: Cc1ccc2c(c1)c(-c1ccc(NC(=O)NCc3ccncc3)cc1)nn2C [1-(4-(1,5-Dimethyl-1H-indazol-3-yl)phenyl)-3-(pyridin-4-ylmethyl)urea]
EC50 (Table B-6): 100 to 2000 nM

SMILES: Cc1cccc2c(-c3ccc(NC(=O)NCc4cnco4)cc3)nn(C)c12 [1-(4-(1,7-Dimethyl-1H-indazol-3-yl)phenyl)-3-(oxazol-5-ylmethyl)urea]
EC50 (Table B-5): 2000 to 5000 nM

SMILES: Cc1cccc2c(-c3ccc(NC(=O)NCc4ccncc4)cc3)nn(C)c12 [1-(4-(1,7-Dimethyl-1H-indazol-3-yl)phenyl)-3-(pyridin-4-ylmethyl)urea]
EC50 (Table B-6): 100 to 2000 nM

SMILES: CN1CCN(C(=O)c2ccc(NC(=O)NCc3ccncc3)cc2)CC1 [1-(4-(4-Methylpiperazine-1-carbonyl)phenyl)-3-(pyridin-4-ylmethyl)urea]
EC50 (Table B-2): 5000 to 20000 nM

SMILES: Cn1nc(-c2ccc(NC(=O)NCc3ccncc3)cc2)c2cc(Cl)ccc21 [1-(4-(5-Chloro-1-methyl-1H-indazol-3-yl)phenyl)-3-(pyridin-4-ylmethyl)urea]
EC50 (Table B-6): 2000 to 5000 nM

SMILES: O=C(NCc1ccncc1)Nc1ccc(C(=O)N2CC3CCC(C2)O3)cc1 [1-(4-(8-Oxa-3-azabicyclo[3.2.1]octane-3-carbonyl)phenyl)-3-(pyridin-4-ylmethyl)urea]
EC50 (Table B-2): 100 to 2000 nM

From patent US11452717B2, “Small molecule activators of nicotinamide phosphoribosyltransferase (NAMPT) and uses thereof” (Sanford Burnham Prebys Medical Discovery Institute, priority 2017, dated 2022)
